pIC50: −log10 of the molar value.
How the values were obtained:
Type in all cases: cell-based
U937 = assay: Cell growth inhibitory activity (Almar Blue), U937; settings: Homo sapiens, U-937; U937 cancer cells, cultured for 72 hours
Protocol: (§1) The cell growth inhibitory activity of Compound 1 was evaluated using 4 types of cancer cells. The cancer cells used were human cancer cells (HT-29, A431, NCI-H460, […]). Compound 1 was dissolved in DMSO. One hundred […] of a suspension of cancer cells was charged in each 96 well micro plate (1.0 to 3.0×10^3 cells/well). After 24 hours, each of solutions of Compounds 1 to 6 was added in an amount of 2 ml to 100 ml of culture fluid to give final concentrations of […] and cultured for 72 hours. Thereafter, 20 ml of an Almar Blue reagent was added to each solution, followed by culturing for 6 hours.

PC-3 = assay: Cell growth inhibitory activity (Almar Blue), PC-3; settings: Homo sapiens; PC-3 cancer cells, cultured for 72 hours
HT-29 = assay: Cell growth inhibitory activity (Almar Blue), HT-29; settings: Homo sapiens; HT-29 cancer cells, cultured for 72 hours
Protocol: as §1
The cell growth inhibitory activity of Compound 6 was evaluated using cancer cells (HT-29). The method for the evaluation was the same as the method by which Compound 1 was evaluated.

NCI-H460 = assay: Cell growth inhibitory activity (Almar Blue), NCI-H460; settings: Homo sapiens; NCI-H460 cancer cells, cultured for 72 hours
Protocol: as §1

SMILES	pIC50 (U937)	pIC50 (PC-3)	pIC50 (HT-29)	pIC50 (NCI-H460)
C/C=C(/C)C1OC2C(C)=CC(C)(/C=C/C(=O)O)C3C(C)=CC1(C)C23C (centres unmarked) [Compound 1]	5.96	6.09	6.23	6.24
C=C1C(O)C(C)(/C=C/C(=O)O)C2C(C)=CC3(C)C(/C(C)=C\C)OC1C23C (centres unmarked) [Compound 6]	–	–	6.51	–

Reference: US9376415B2, “Tricyclic condensed heterocyclic compound, process of producing same, and use thereof” (NIPPON SUISAN KAISHA, LTD., priority 2009, dated 2016)
